This is an account of results in patent publication US11992499B2, “Quinoline derivatives for use in the treatment of inflammation diseases” (ABIVAX, priority 2018, dated 2024).

Entries after “also recorded” stand apart in the source; their conditions may differ. Read-outs that look alike come from different tables or passages of the source.

Assay [1] deals with STAM model of non-alcoholic steatohepatitis. Briefly: STAM model of NASH: plasma ALT. The assay is classed as in vivo, mice. The settings on record: for Plasma ALT (mean ± SD): n = 8. Here is the method:
NASH was induced in 48 male mice by a single subcutaneous injection of 200 μg streptozotocin (STZ, Sigma-Aldrich, USA) solution 2 days after birth and feeding with high fat diet (HFD, 57 kcal % fat, Cat #HFD32, CLEA Japan, Inc., Japan) after 4 weeks of age. Compound A was administered at 3 dose levels of 10, 20 and 40 mg/kg once daily from 6 to 9 weeks of age. Compound B was administered at a dose of 40 mg/kg once daily from 6 to 9 weeks of age. Telmisartan was administered at a dose of 10 mg/kg once daily from 6 to 9 weeks of age. For plasma biochemistry, non-fasting blood was collected in polypropylene tubes with anticoagulant (Novo-Heparin, Mochida Pharmaceutical Co. Ltd., Japan) and centrifuged at 1,000×g for 15 minutes at 4° C. The supernatant was collected and stored at −80° C. until use. Plasma ALT was measured by FUJI DRI-CHEM 7000 (Fujifilm, Japan).

Assay [2] shares this test system. Type of assay: in vivo. Conditions: for Liver weight (mean ± SD) / Liver-to-body weight ratio (mean ± SD): n = 8. From the text: To prepare dosing solution, Compound A and B were weighed and suspended in Vehicle which was composed of 20% of Vehicle-A1 and 80% of Vehicle-A2. Vehicle-A1 was composed of 0.5% (w/v) Carboxymethyl cellulose (CMC) 400-800 centipoises in water for injection+2.5% (w/v) Tween 80. Vehicle-A2 was composed of 0.5% (w/v) Carboxymethyl cellulose (CMC) 400-800 centipoises in water for injection. Telmisartan (Micardis®) was purchased from Boehringer Ingelheim GmbH (Germany) and dissolved in pure water.
NASH was induced in 48 male mice by a single subcutaneous injection of 200 μg streptozotocin (STZ, Sigma-Aldrich, USA) solution 2 days after birth and feeding with high fat diet (HFD, 57 kcal % fat, Cat #HFD32, CLEA Japan, Inc., Japan) after 4 weeks of age.
Compound A and B, and Telmisartan were administered orally in a volume of 10 mL/kg.
Compound A was administered at 3 dose levels of 10, 20 and 40 mg/kg once daily from 6 to 9 weeks of age. Compound B was administered at a dose of 40 mg/kg once daily from 6 to 9 weeks of age. Telmisartan was administered at a dose of 10 mg/kg once daily from 6 to 9 weeks of age.
C57BL/6 mice (14-day-pregnant female) were obtained from Japan SLC, Inc. (Japan). All animals used in the study were housed and cared for in accordance with the Japanese Pharmacological Society Guidelines for Animal Use.
Group 1: Vehicle Eight NASH mice were orally administered vehicle [20% of Vehicle-A1 and 80% of Vehicle-A2] in a volume of 10 mL/kg once daily from 6 to 9 weeks of age.
Eight NASH mice were orally administered vehicle supplemented with Compound A at a dose of 10 mg/kg once daily from 6 to 9 weeks of age.
Eight NASH mice were orally administered vehicle supplemented with Compound A at a dose of 20 mg/kg once daily from 6 to 9 weeks of age.
Eight NASH mice were orally administered vehicle supplemented with Compound A at a dose of 40 mg/kg once daily from 6 to 9 weeks of age.
Eight NASH mice were orally administered vehicle supplemented with Compound B at a dose of 40 mg/kg once daily from 6 to 9 weeks of age.
Eight NASH mice were orally administered pure water supplemented with Telmisartan at a dose of 10 mg/kg once daily from 6 to 9 weeks of age.
The viability, clinical signs and behavior were monitored daily. Body weight was recorded before the treatment. […] The animals were sacrificed at 9 weeks of age by exsanguination through direct cardiac puncture under isoflurane anesthesia (Pfizer Inc.).

Setting [3] is: 10 mg/kg PO QD (Compound A low, Telmisartan groups).
Setting [4] is: 10 mg/kg PO QD, 6-9 wks of age (Compound A low, Telmisartan groups).
The mark [5] stands for this setting: 20 mg/kg PO QD (Compound A middle group).
Where [6] appears, read: 20 mg/kg PO QD, 6-9 wks of age (Compound A middle group).
Where [7] appears, read: 40 mg/kg PO QD (Compound A high, Compound B groups).
Setting [8] is: 40 mg/kg PO QD, 6-9 wks of age (Compound A high, Compound B groups).

Take `FC(F)(F)Oc1ccc(Nc2ccc3cccc(Cl)c3n2)cc1` [Compound A, 8-Chloro-N-(4-(trifluoromethoxy)phenyl)quinolin-2-amine]: the results for the “Plasma ALT level compared with the Vehicle group” value in assay [1] (setting [3]), in assay [1] (setting [5]) and in assay [1] (setting [7]) were “tended to increase; also recorded: increasing trend”, “tended to increase; also recorded: increasing trend” and “significant increase”, respectively. Besides, the “Plasma ALT (mean ± SD)” value is 75 ± 31 U/L in assay [1] (setting [4]), 91 ± 15 U/L in assay [1] (setting [6]) and 133 ± 100 U/L in assay [1] (setting [8]). Also, the results for the “Mean liver weight compared with the Vehicle group” value in assay [2] (setting [3]), in assay [2] (setting [5]) and in assay [2] (setting [7]) were “significant increase”, “no significant difference” and “tended to increase”, respectively. For the same compound, the “Mean liver-to-body weight ratio compared with the Vehicle group” value in assay [2] (setting [3]), in assay [2] (setting [5]) and in assay [2] (setting [7]) was “tended to increase” in each case. The “Liver weight (mean ± SD)” value in assay [2] (setting [4]) was 1662 ± 254 mg; in assay [2] (setting [6]) it was 1500 ± 77 mg; in assay [2] (setting [8]) it was 1654 ± 145 mg. In addition, the entries for the “Liver-to-body weight ratio (mean ± SD)” value in assay [2] (setting [4]), in assay [2] (setting [6]) and in assay [2] (setting [8]) were 8.4 ± 1.8%, 7.6 ± 0.4% and 8.5 ± 1.1%, respectively.
